The values below come from article PMC12705485, “Aluminum-[^18F]fluoride radiolabeling of triarylphosphines for cell labeling via the perfluoroaryl azide Staudinger ligation” (EJNMMI Radiopharmacy and Chemistry, 2025).

Like-named read-outs stand apart in the source and are kept apart here.

A short description of data set [1]: Kinetic studies on the PFAA-Staudinger ligation with 1 by 1H NMR spectroscopy. To be noted: reaction with 1, DMSO-d6, 2.5 mM, 25 °C. The protocol:
The kinetics of the Staudinger ligation between 1 and 2a–2c (Scheme 1) were monitored by ^1H NMR spectroscopy, following spectral changes over time.
The kinetic experiments were carried out following a published protocol (Sundhoro et al. [2017]). […] Kinetic models were evaluated by non-linear fitting corresponding to first- and second-order rate laws in Prism 10 (GraphPad, San Diego, CA, USA) as expected for the Staudinger ligation. Fitting was carried out using kinetic models based on reagent decomposition (A) or product formation (P) as shown in the equations below, depending on signal clarity and the magnitude of ^1H NMR spectral changes over time:where [A] = concentration of reactant A at time t, [A]₀ = initial concentration of reactant A (at t = 0), [P] = concentration of product P at time t, [P]₀ = maximum possible product concentration, k = rate constant and t = time elapsed.

Data set [2] can be described thus: Stability of 2c under simulated radiolabeling conditions (HPLC). The data set is classed as physicochemical. To be noted: 60 nmol AlCl3, 1:1 0.17 M NaOAc (pH 4.5):EtOH, 30 min. The protocol: The analysis was carried out using a pentafluorophenyl (PFP) column (Kinetex 2.6 µm PFP 100 Å, LC Column 150 × 4.6 mm from Phenomenex, Torrance, CA, USA) and HPLC methods A and B (see SI). The Al^19F-complexes were isolated and analyzed using NMR and/or HRMS. The stability of 2c was also tested in the presence of 60 nmol AlCl3 in 1:1 (v/v) 0.17 M NaOAC (pH 4.5):EtOH, simulating the radiolabeling conditions.

For data set [3] the following is noted: cited from earlier work.
For data set [4], the system named is Jurkat cells. Kind of data set: Flow cytometry of metabolic glycoengineering (phosphine-PEG3-biotin, streptavidin-FITC). The data set is classed as cell-based, Human. Conditions: 50 µM, 72 h, then 1 µM phosphine-PEG3-biotin. As for the experimental part: Jurkat cells (5 × 10^5 cells in 1.5-mL complete medium per well) were seeded in a non-treated flat-bottom polystyrene 6-well plate (Avantor, Radnor, PA, USA) and incubated in triplicates (n = 3) with 50 μM of 1, 50 μM of Ac4ManNAz (Lumiprobe, Westminster, MD, USA) or 0.5% (v/v) DMSO in complete medium for 72 h in a cell incubator set at 37 °C with 5% CO2 and 95% relative humidity. After incubation, the cells for each condition were combined and washed twice with 5 mL of 1 × Dulbecco's phosphate-buffered saline (DPBS). The cell number and viability were determined using EVE™ automatic cell counter (NanoEnTek, Seoul, Korea). 1 × 10^6 cells were resuspended in 500 µL of a freshly prepared 1 × DPBS (pH 7.4) or 1 µM of phosphine-PEG3-biotin (Thermo Fisher Scientific, Waltham, MA, USA) in 1 × DPBS (n = 3), then transferred to 1.5-mL microtubes, and incubated at ambient temperature for 60 min on a rotating platform. […] After the incubation, 400 µL of FACS (fluorescence-activated cell sorting) buffer (2% FBS in DPBS) was added followed by two washings with 500 µL of FACS buffer. […] Data were analyzed using FlowJo software (FlowJo LLC, Ashland, OR, United States).
On the technique in general: In flow cytometry, cells or beads pass a laser one at a time.

Data set [5] relates to Jurkat cells. Kind of data set: Cell viability during flow cytometry workflow (automatic cell counter / 7-AAD). The data set is classed as cell-based, Human. As for the experimental part: (§1) After incubation, the cells for each condition were combined and washed twice with 5 mL of 1 × Dulbecco's phosphate-buffered saline (DPBS). The cell number and viability were determined using EVE™ automatic cell counter (NanoEnTek, Seoul, Korea). 1 × 10^6 cells were resuspended in 500 µL of a freshly prepared 1 × DPBS (pH 7.4) or 1 µM of phosphine-PEG3-biotin (Thermo Fisher Scientific, Waltham, MA, USA) in 1 × DPBS (n = 3), then transferred to 1.5-mL microtubes, and incubated at ambient temperature for 60 min on a rotating platform. Then, cells are washed twice with 1 × DPBS, resuspended in 100 µL of a freshly prepared solution of 1:200 streptavidin-fluorescein isothiocyanate (FITC) (0.1 μg, Thermo Fisher Scientific, Waltham, MA, USA) in 1 × DPBS, and incubated for 15 min in the dark on ice with mixing once manually in between. After the incubation, 400 µL of FACS (fluorescence-activated cell sorting) buffer (2% FBS in DPBS) was added followed by two washings with 500 µL of FACS buffer. During the washing step, the samples were centrifuged at 4 °C, […] for 5 min, the supernatant was removed, and the cells were resuspended in fresh buffer, followed by centrifugation. Lastly, cells were resuspended in 500 µL of FACS buffer and transferred to FACS tubes equipped with a 35 µm cell strainer cap. Dead and apoptotic cells were stained by adding 5 µL of 7-aminoactinomycin D (7-AAD) staining solution and incubating for 10 min at ambient temperature in the dark, followed by flow cytometry analysis using LSR Fortessa (BD Biosciences, Franklin Lake, NJ, USA). Unstained samples, samples stained only with streptavidin-FITC, and only with 7-AAD were used as controls. Data were analyzed using FlowJo software (FlowJo LLC, Ashland, OR, United States).

A short description of data set [6]: CyQUANT LDH Cytotoxicity Assay. To be noted: human, Jurkat T lymphoblasts (Clone E6-1), read-out: cell viability. The data set is classed as cell-based. The protocol:
The in vitro cytotoxicity of 1 was assessed using the CyQUANT™ LDH Cytotoxicity Assay (Invitrogen, Waltham, MA, USA), which quantifies membrane damage via extracellular lactate dehydrogenase (LDH) release. Assay reagents (Lysis Buffer, Reaction Mixture, and Stop Solution) were prepared according to the manufacturer’s protocol. Human Jurkat T lymphoblasts (Clone E6-1, ATCC TIB-152™, Manassas, VA, USA) were suspended in complete medium and mixed (1:1) with 1 in complete medium to obtain final concentrations of 10, 20, 50, 125, and 250 μM containing 0.5% v/v DMSO vehicle. Positive control for cytotoxicity (maximum LDH; cells lysed with 10 × Lysis Buffer at 1:10 v/v, prepared before each time point), negative control for cytotoxicity (spontaneous LDH; 0.5% v/v DMSO in complete medium), and complete-medium and serum-free medium blanks (background) were included. Sample-containing and control cell suspensions were plates at a density of 14,000 cells per well in 280 μL on an opaque-walled, clear-bottom 96-well plate. Plates were incubated at 37 °C, 5% CO2 in a humidified incubator for 24, 48, and 72 h. All conditions were run in quadruplicate (n = 4). […] Absorbance was measured at 490 and 680 nm on a Synergy H1 multimode microplate reader (BioTek, Winooski, VT, USA). LDH signal was calculated as Abs490 – Abs680 (background-corrected).
% Cytotoxicity was determined as:

Data set [7] can be described thus: Cell viability during flow cytometry workflow (automatic cell counter / 7-AAD). It is filed as cell-based, Human. Conditions: human, Jurkat cells, 50 µM, 72 h. The protocol: as §1

For `O=C(O)CN(CC(=O)O)CC(CCNC(=O)Cc1ccc(CN(CC(=O)O)[C@@H]2CCCC[C@H]2N(CC(=O)O)CC(=O)O)cc1)OC(=O)c1ccccc1P(c1ccccc1)c1ccccc1` (stereo partly drawn) [2a], in data set [1], the “second-order rate constant of PFAA-Staudinger ligation” value is 4.246 × 10^–4 M⁻1 s⁻1.

Take `O=C(O)CN(CC(=O)O)[C@@H]1CCCC[C@H]1N(CC(=O)O)Cc1ccc(CC(=O)NCCNC(=O)c2ccccc2P(c2ccccc2)c2ccccc2)cc1` [2b]: the “first-order rate constant of PFAA-Staudinger ligation” value in data set [1] was 5.434 × 10^–3 s⁻1.

As for `O=C(O)CN(CC(=O)O)C1CCCCC1N(CC(=O)O)Cc1ccc(CC(=O)NC2CCC(CNC(=O)c3ccccc3P(c3ccccc3)c3ccccc3)CC2)cc1` (stereo not drawn) [2c], the “second-order rate constant of PFAA-Staudinger ligation” value in data set [1] is recorded as 4.071 × 10^–4 M⁻1 s⁻1. Also, the “stability under radiolabeling conditions without radioactivity (HPLC)” value in data set [2] was “negligible change”.

For `SCP(c1ccccc1)c1ccccc1` [(diphenylphosphino)methanethiol], the “second-order rate constant, traceless Staudinger ligation” value in data set [3] (DMF:D2O (6:1) ref Soellner et al. [2006]) is listed as 7.7 × 10^–3 M^−1 s^−1.

Take `CC(=O)OC[C@H]1OC(OC(C)=O)[C@@H](NC(=O)CN=[N+]=[N-])[C@@H](OC(C)=O)[C@@H]1OC(C)=O` (stereo partly drawn) [Ac4ManNAz, Tetra-acetylated N-azidoacetylmannosamine, reference compound]: in the data set on Jurkat cells [4], the “fluorescent labeling with streptavidin-FITC” value is listed as “observed”. Also, in the data set on Jurkat cells [5] (50 µM, 72 h), the “cell viability after 72 h of incubation” value is 96%. Besides, in the data set with Jurkat cells [5] (50 µM, 72 h, after ligation and staining), the “cell viability at the time of analysis” value was 79–82%.

Regarding `[N-]=[N+]=NCc1ccccc1` [benzyl azide], the “second-order rate constant, non-traceless Staudinger ligation” value in data set [3] (ACN:H2O (19:1) ref Lin et al. [2005]) is 2.5 × 10^–3 M^−1 s^−1.

Broadly, the viability is a read-out of living cells in per cent, often relative to untreated cells. `CC(=O)OCC1OC(OC(C)=O)C(NC(=O)c2c(F)c(F)c(N=[N+]=[N-])c(F)c2F)C(OC(C)=O)C1OC(C)=O` (stereo not drawn) [compound 1, tetra-acetylated PFAA-derivatized mannosamine]: the viability in data set [6] (concentrations up to 50 μM, 24, 48 and 72 h) was above 80%. Besides, the viability at 125 µM in data set [6] (≥ 125 μM, after 24 and 72 h of incubation) is below 80%. Also, in the data set on Jurkat cells [4], the “fluorescent labeling with streptavidin-FITC” value was “minimal/no signal”. Also, the viability at 72 h, 50 µM in data set [7] (after ligation and staining, read-out: cell viability at the time of analysis) is 77 to 80%; in data set [7] (read-out: cell viability after 72 h of incubation), 91%. Besides, in the data set on Jurkat cells [5] (100 µM, 72 h of incubation), the cell viability entry is listed as “reduced cell viability”.
